What was measured:
blood pressure [1] = experiment: Blood Pressure Reducing Action: Intravenous Injection; type: in vivo, Male Wister rats; conditions: anesthetized rat; for ED (50 mmHg reduction): iv, from dose-response curve, read-out: MABP50 (dose required for reducing average blood pressure by 50 mmHg); for Reduction of Blood Pressure: i.v.
Procedure: Male Wister rats (mean body weight: 420 g) were anesthetized by intra-peritoneal injection of 50 mg/kg of pentobarbital sodium and were fixed on their backs, and their blood pressures were measured at left femoral artery. Subsequently, a compound to be tested was dissolved in a saline solution containing 0.25% bovine serum albumin and injected into the rat through the right femoral vein.
A dose-response curve was prepared from the above values to determine a dose required for reducing average blood pressure by 50 mmHg (MABP50). MABP50 for the above compound was 21 ng/kg.

blood pressure [2] = experiment: Blood Pressure Decreasing Action: Oral Administration; type: in vivo, Spontaneously hypertensive male rats; conditions: 10 mg/kg
Procedure: Spontaneously hypertensive male rates (average body weight: 359 g) were etherized and fixed on their backs. Blood pressure was measured for each rat through cannulation at its left femoral artery. A compound to be tested was dissolved in a distilled water and the resulting aqueous solution was administered orally.

platelet = experiment: Blood Platelet Agglutination Action; type: cell-based, male Japanese white rabbit; conditions: Oryctolagus cuniculus; for EC50: from agglutination curve
Procedure: A male Japanese white rabbit was anesthetized by pentobarbital, and a blood was collected in aqueous 3.13% sodium citrate solution at its carotid. The blood containing 1/10 volume ratio of the sodium citrate solution was treated in a conventional manner to give a platelet rich plasma (PRP) and a platelet poor plasma (PPP) for performing the following experiment.
PRP was diluted with PPP to give a sample containing platelets at 300,000/mm^3.
Agglutination of platelet was determined by means of Platelet Aggregation Tracer PAT-4A(available from Niko Bioscience Co., Ltd., Japan). 10 μl of a test solution was added to 190 μl of PRP to give a final solution of 2×10^-10 to 2×10^-4 M, and an agglutination curve is recorded. For the preparation of the test solution, a saline solution containing 0.25% bovine serum albumin.
Agglutination of Platelet

| SMILES | ED (50 mmHg reduction) (blood pressure [1]) | Reduction of Blood Pressure (blood pressure [2]; after 30 min) | Reduction of Blood Pressure (blood pressure [2]; after 1 hr) | Reduction of Blood Pressure (blood pressure [2]; after 2 hrs) | Reduction of Blood Pressure (blood pressure [2]; after 3 hrs) | Reduction of Blood Pressure (blood pressure [2]; after 4 hrs) | Reduction of Blood Pressure (blood pressure [2]; after 5 hrs) | Reduction of Blood Pressure (blood pressure [2]; after 6 hrs) | EC50 (platelet; table) | also measured |
| --- | --- | --- | --- | --- | --- | --- | --- | --- | --- | --- |
| CCCCCCCCCCCCCCCCOC(C)C(COP(=O)([O-])OC1CC[N+](C)(C)C1)OC(C)=O (stereo not drawn) [Example 3, 2-Acetyloxy-3-hexadecyloxybutyl 1,1-dimethylpyrrolidinio-3-yl phosphate] | 8.5 µg/kg | -49.7 mmHg | -60.7 mmHg | -74.3 mmHg | -82.0 mmHg | -84.7 mmHg | -83.7 mmHg | -82.3 mmHg | 400 nM | – |
| CCCCCCCCCCCCCCCCOC(C)C(COP(=O)([O-])OC1CC[N+](C)(C)CC1)OC(C)=O (stereo not drawn) [Example 5, 2-Acetyloxy-3-hexadecyloxybutyl 1,1-dimethylpiperidinio-4-yl phosphate] | 8.6 µg/kg | +5.0 mmHg | 0 mmHg | -14.5 mmHg | -19.0 mmHg | -22.5 mmHg | -26.0 mmHg | -28.0 mmHg | 630 nM | – |
| CCCCCCCCCCCCCCCCOC(C)C(COP(=O)([O-])OC1CCC[N+](C)(C)C1)OC(C)=O (stereo not drawn) [Example 4, 2-Acetyloxy-3-hexadecyloxybutyl 1,1-dimethylpiperidinio-3-yl phosphate] | 0.34 µg/kg | -66.0 mmHg | -68.0 mmHg | -73.0 mmHg | -72.3 mmHg | -66.7 mmHg | -63.0 mmHg | -66.7 mmHg | 22 nM | – |
| CCCCCCCCCCCCCCCCOCC(COP(=O)([O-])OC1CC[N+](C)(C)CC1)OC(C)=O (stereo not drawn) [Example 2, 2-Acetyloxy-3-hexadecyloxypropyl 1,1-dimethylpiperidinio-4-yl phosphate] | 0.058 µg/kg | – | – | – | – | – | – | – | 8 nM | – |
| CCCCCCCCCCCCCCCCOCC(COP(=O)([O-])OC1CC[N+](C)(C)C1)OC(C)=O (stereo not drawn) [Example 8, 2-Acetyloxy-3-hexadecyloxypropyl 1,1-dimethylpyrrolidinio-3-yl phosphate] | 0.021 µg/kg | – | – | – | – | – | – | – | – | Reduction of Blood Pressure (blood pressure [1]; 1 ng/kg): -4.5 ± 1.5 mmHg; Reduction of Blood Pressure (blood pressure [1]; 5 ng/kg): -21.5 ± 8.0 mmHg; Reduction of Blood Pressure (blood pressure [1]; 10 ng/kg): -47.5 ± 0.5 mmHg; Reduction of Blood Pressure (blood pressure [1]; 50 ng/kg): -52.6 ± 4.6 mmHg; Reduction of Blood Pressure (blood pressure [1]; 100 ng/kg): -67.0 ± 3.1 mmHg; activation at 2 µM (platelet; 2 × 10^-6 M, PRP = 0%, PPP = 100%): 86%; activation at 0.2 µM (platelet; 2 × 10^-7 M, PRP = 0%, PPP = 100%): 81%; activation at 0.02 µM (platelet; 2 × 10^-8 M, PRP = 0%, PPP = 100%): 67%; activation at 0.002 µM (platelet; 2 × 10^-9 M, PRP = 0%, PPP = 100%): 18%; activation at 0.0002 µM (platelet; 2 × 10^-10 M, PRP = 0%, PPP = 100%): 0%; EC50 (platelet): 18 nM |
| CCCCCCCCCCCCCCCCOCC(COP(=O)([O-])OC1CCC[N+](C)(C)C1)OC(C)=O (stereo not drawn) [Example 1, 2-Acetyloxy-3-hexadecyloxypropyl 1,1-dimethylpiperidinio-3-yl phosphate] | 0.013 µg/kg | – | – | – | – | – | – | – | 0.6 nM | – |
| CCCCCCCCCCCCCCCCOCC(OC(C)=O)C(OP(=O)([O-])OC1CC[N+](C)(C)C1)C(C)C (stereo not drawn) [Example 6, 2-Acetyloxy-3-hexadecyloxy-1-(1-methylethyl)-propyl 1,1-dimethylpyrrolidinio-3-yl phosphate] | 48 µg/kg | – | – | – | – | – | – | – | 5000 nM | – |

— patent US5053402A, “Certain glyceryl phosphate-cyclic ammonium compounds useful for treating hypertension” (Nippon Chemiphar Co., Ltd., priority 1986, dated 1991)
